Source: US8686113B2 (priority 2009, dated 2014)
Non-standard residues stand in square brackets, D forms with d. Residues, ends and D or L forms follow the SMILES beside them. No end group written: not given here. *: point of attachment. Orn = NCCC[C@H](N)C(=O)O; NHPr = CCCN*

Legend:
[1] = mouse, serum, Half-life in 25% mouse serum, 25% aqueous mouse serum, 37° C., 75 μg/mL peptide
M. luteus 10240 = experiment: Growth inhibition assay (microdilution MIC); format: cell-based, Micrococcus luteus
Procedure, shortened: (§1)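 Broth microdilution in 1% TSB with twofold peptide series, final 128 μg/mL to 62.5 ng/mL, against 5×10^6 bacteria/mL stock suspension added 1:1. Incubated 20 h at 37 °C, growth read by absorbance at 595 nm; MIC is the lowest concentration with no growth, determined in triplicate.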

E. coli BL21 A1 = format: cell-based, Escherichia coli; details: BL21, 20 h
Procedure, shortened: as §1

CC[C@H](C)[C@H](NC(=O)[C@H](CCCNC(=N)N)NC(=O)[C@H](CCCNC(=N)N)NC(=O)[C@@H]1CCCN1C(=O)[C@@H]1CCCN1C(=O)[C@H](CCCNC(=N)N)NC(=O)[C@@H]1CCCN1C(=O)[C@H](CCCNC(=N)N)NC(=O)[C@@H]1CCCN1C(=O)[C@H](CC(C)C)NC(=O)[C@H](Cc1ccc(O)cc1)NC(=O)[C@@H]1CCCN1C(=O)[C@@H]1CCCN1C(=O)[C@H](CCCCN)NC(=O)[C@H](CC(=O)O)NC(=O)[C@@H](N)C(C)C)C(=O)N[C@@H](Cc1ccc(O)cc1)C(=O)N[C@@H](CC(N)=O)C(=O)N[C@@H](CCCN)C(N)=O [SEQ ID NO. 50, VDKPPYLPRPRPPRRIYNO-NH2] (H-VDKPPYLPRPRPPRRIYN[Orn]-NH2)
half-life [1]: 1.5 h

CCCNC(=O)[C@H](CCCNC(=N)N)NC(=O)[C@H](CC(N)=O)NC(=O)[C@H](Cc1ccc(O)cc1)NC(=O)[C@@H](NC(=O)[C@H](CCCNC(=N)N)NC(=O)[C@H](CCCNC(=N)N)NC(=O)[C@@H]1CCCN1C(=O)[C@@H]1CCCN1C(=O)[C@H](CCCNC(=N)N)NC(=O)[C@@H]1CCCN1C(=O)[C@H](CCCNC(=N)N)NC(=O)[C@@H]1CCCN1C(=O)[C@H](CC(C)C)NC(=O)[C@H](Cc1ccc(O)cc1)NC(=O)[C@@H]1CCCN1C(=O)[C@@H]1CCCN1C(=O)[C@H](CCCCN)NC(=O)[C@H](CC(=O)O)NC(=O)[C@@H](N)C(C)C)[C@@H](C)CC [SEQ ID NO. 58] (H-VDKPPYLPRPRPPRRIYNR-NHPr)
half-life [1]: 2 h

CC[C@H](C)[C@H](NC(=O)[C@H](CCCN)NC(=O)[C@H](CCCNC(=N)N)NC(=O)[C@@H]1CCCN1C(=O)[C@@H]1CCCN1C(=O)[C@H](CCCNC(=N)N)NC(=O)[C@@H]1CCCN1C(=O)[C@H](CCCNC(=N)N)NC(=O)[C@@H]1CCCN1C(=O)[C@H](CC(C)C)NC(=O)[C@H](Cc1ccc(O)cc1)NC(=O)[C@@H]1CCCN1C(=O)[C@@H]1CCCN1C(=O)[C@H](CCCCN)NC(=O)[C@H](CC(=O)O)NC(=O)[C@@H](N)C(C)C)C(=O)N[C@@H](Cc1ccc(O)cc1)C(=O)N[C@@H](CC(N)=O)C(=O)N[C@@H](CCCNC(=N)N)C(N)=O [SEQ ID NO. 61, VDKPPYLPRPRPPROIYNR-NH2] (H-VDKPPYLPRPRPPR[Orn]IYNR-NH2)
half-life [1]: 2 h

H-VDKPAYLPRPRPPRRIYNR-NH2 [compound 33]
MIC M. luteus 10240 (M. luteus 10240; 10240, 20 h): 8 µg/mL | MIC E. coli BL21 A1 (E. coli BL21 A1): 8 µg/mL

H-VDKPPALPRPRPPRRIYNR-NH2 [compound 34]
MIC M. luteus 10240 (M. luteus 10240; 10240, 20 h): 16 µg/mL | MIC E. coli BL21 A1 (E. coli BL21 A1): 128 µg/mL

H-VDKPPYAPRPRPPRRIYNR-NH2 [compound 35]
MIC M. luteus 10240 (M. luteus 10240; 10240, 20 h): 16 µg/mL | MIC E. coli BL21 A1 (E. coli BL21 A1): 128 µg/mL

H-VDKPPYIPRPRPPRRIYNR-NH2 [compound 77]
MIC M. luteus 10240 (M. luteus 10240; 10240, 20 h): 8 µg/mL | MIC E. coli BL21 A1 (E. coli BL21 A1): 32 µg/mL

H-VDKPPYLARPRPPRRIYNR-NH2 [compound 36]
MIC M. luteus 10240 (M. luteus 10240; 10240, 20 h): 8 µg/mL | MIC E. coli BL21 A1 (E. coli BL21 A1): 32 µg/mL

H-VDKPPYLPAPRPPRRIYNR-NH2 [compound 37]
MIC M. luteus 10240 (M. luteus 10240; 10240, 20 h): 32 µg/mL | MIC E. coli BL21 A1 (E. coli BL21 A1): 32 µg/mL

H-VDKPPYLPRARPPRRIYNR-NH2 [compound 38]
MIC M. luteus 10240 (M. luteus 10240; 10240, 20 h): 8 µg/mL | MIC E. coli BL21 A1 (E. coli BL21 A1): 32 µg/mL

H-VDKPPYLPRPAPPRRIYNR-NH2 [compound 39]
MIC M. luteus 10240 (M. luteus 10240; 10240, 20 h): 16 µg/mL | MIC E. coli BL21 A1 (E. coli BL21 A1): 64 µg/mL

H-VDKPPYLPRPFPPRRIYNR-OH [compound 13]
MIC M. luteus 10240 (M. luteus 10240; 10240, 20 h): 32 µg/mL | MIC E. coli BL21 A1 (E. coli BL21 A1): 64 µg/mL

H-VDKPPYLPRPHPPRRIYNNR-OH [compound 8]
MIC M. luteus 10240 (M. luteus 10240; 10240, 20 h): 32 µg/mL | MIC E. coli BL21 A1 (E. coli BL21 A1): 64 µg/mL

H-VDKPPYLPRPHPPRRIYNRN-OH [compound 9]
MIC M. luteus 10240 (M. luteus 10240; 10240, 20 h): 16 µg/mL | MIC E. coli BL21 A1 (E. coli BL21 A1): 64 µg/mL

H-VDKPPYLPRPKPPRRIYNR-NH2 [compound 7]
MIC M. luteus 10240 (M. luteus 10240; 10240, 20 h): 16 µg/mL | MIC E. coli BL21 A1 (E. coli BL21 A1): 8 µg/mL

H-VDKPPYLPRPKPPRRIYNRN-OH [compound 6]
MIC M. luteus 10240 (M. luteus 10240; 10240, 20 h): 16 µg/mL | MIC E. coli BL21 A1 (E. coli BL21 A1): 32 µg/mL

H-VDKPPYLPRPNPPRRIYNR-OH [compound 11]
MIC M. luteus 10240 (M. luteus 10240; 10240, 20 h): 64 µg/mL | MIC E. coli BL21 A1 (E. coli BL21 A1): 64 µg/mL

H-VDKPPYLPRPPPPRRIYNNR-OH [compound 2]
MIC M. luteus 10240 (M. luteus 10240; 10240, 20 h): 64 µg/mL | MIC E. coli BL21 A1 (E. coli BL21 A1): 128 µg/mL

H-VDKPPYLPRPQPPRRIYNR-OH [compound 12]
MIC M. luteus 10240 (M. luteus 10240; 10240, 20 h): 64 µg/mL | MIC E. coli BL21 A1 (E. coli BL21 A1): 64 µg/mL

H-VDKPPYLPRPRAPRRIYNR-NH2 [compound 40]
MIC M. luteus 10240 (M. luteus 10240; 10240, 20 h): 8 µg/mL | MIC E. coli BL21 A1 (E. coli BL21 A1): 16 µg/mL

H-VDKPPYLPRPRPARRIYNR-NH2 [compound 41]
MIC M. luteus 10240 (M. luteus 10240; 10240, 20 h): 8 µg/mL | MIC E. coli BL21 A1 (E. coli BL21 A1): 16 µg/mL

H-VDKPPYLPRPRPPARIYNR-NH2 [compound 42]
MIC M. luteus 10240 (M. luteus 10240; 10240, 20 h): 32 µg/mL | MIC E. coli BL21 A1 (E. coli BL21 A1): 16 µg/mL

H-VDKPPYLPRPRPPRAIYNR-NH2 [compound 43]
MIC M. luteus 10240 (M. luteus 10240; 10240, 20 h): 16 µg/mL | MIC E. coli BL21 A1 (E. coli BL21 A1): 32 µg/mL

H-VDKPPYLPRPRPPRHIYNH-NH2 [compound 64]
MIC M. luteus 10240 (M. luteus 10240; 10240, 20 h): 32 µg/mL | MIC E. coli BL21 A1 (E. coli BL21 A1): 8 µg/mL

H-VDKPPYLPRPRPPRPIRV-OH [compound 48]
MIC M. luteus 10240 (M. luteus 10240; 10240, 20 h): 8 µg/mL | MIC E. coli BL21 A1 (E. coli BL21 A1): 128 µg/mL

H-VDKPPYLPRPRPPRRAYNR-NH2 [compound 44]
MIC M. luteus 10240 (M. luteus 10240; 10240, 20 h): 16 µg/mL | MIC E. coli BL21 A1 (E. coli BL21 A1): 16 µg/mL

H-VDKPPYLPRPRPPRRIANR-NH2 [compound 45]
MIC M. luteus 10240 (M. luteus 10240; 10240, 20 h): 16 µg/mL | MIC E. coli BL21 A1 (E. coli BL21 A1): 8 µg/mL

H-VDKPPYLPRPRPPRRIYAR-NH2 [compound 46]
MIC M. luteus 10240 (M. luteus 10240; 10240, 20 h): 8 µg/mL | MIC E. coli BL21 A1 (E. coli BL21 A1): 8 µg/mL

H-VDKPPYLPRPRPPRRIYN-NH2 [compound 27]
MIC M. luteus 10240 (M. luteus 10240; 10240, 20 h): 64 µg/mL | MIC E. coli BL21 A1 (E. coli BL21 A1): 32 µg/mL

H-VDKPPYLPRPRPPRRIYNA-NH2 [compound 47]
MIC M. luteus 10240 (M. luteus 10240; 10240, 20 h): 16 µg/mL | MIC E. coli BL21 A1 (E. coli BL21 A1): 32 µg/mL

H-VDKPPYLPRPRPPRRIYPQPRPPHPRL-NH2 [compound 49]
MIC M. luteus 10240 (M. luteus 10240; 10240, 20 h): 4 µg/mL | MIC E. coli BL21 A1 (E. coli BL21 A1): 4 µg/mL

H-VDKPPYLPRPRPPRRIYQR-NH2 [compound 79]
MIC M. luteus 10240 (M. luteus 10240; 10240, 20 h): 8 µg/mL | MIC E. coli BL21 A1 (E. coli BL21 A1): 8 µg/mL

H-VDKPPYLPRPRPPRRLYNR-NH2 [compound 78]
MIC M. luteus 10240 (M. luteus 10240; 10240, 20 h): 16 µg/mL | MIC E. coli BL21 A1 (E. coli BL21 A1): 8 µg/mL

H-VDKPPYLPRPRPRPRIYNR-NH2 [compound 59]
MIC M. luteus 10240 (M. luteus 10240; 10240, 20 h): 16 µg/mL | MIC E. coli BL21 A1 (E. coli BL21 A1): 8 µg/mL

H-VDKPPYLPRPTPPRRIYNNR-OH [compound 4]
MIC M. luteus 10240 (M. luteus 10240; 10240, 20 h): 64 µg/mL | MIC E. coli BL21 A1 (E. coli BL21 A1): 128 µg/mL

H-VDKPPYLPRPYPPRRIYNR-OH [compound 10]
MIC M. luteus 10240 (M. luteus 10240; 10240, 20 h): 16 µg/mL | MIC E. coli BL21 A1 (E. coli BL21 A1): 128 µg/mL

H-VDRPPYLPRPRPPRRIYNR-NH2 [compound 76]
MIC M. luteus 10240 (M. luteus 10240; 10240, 20 h): 8 µg/mL | MIC E. coli BL21 A1 (E. coli BL21 A1): 16 µg/mL

H-VEKPPYLPRPRPPRRIYNR-NH2 [compound 75]
MIC M. luteus 10240 (M. luteus 10240; 10240, 20 h): 8 µg/mL | MIC E. coli BL21 A1 (E. coli BL21 A1): 16 µg/mL

VDKGSYLPRPTPPRPIYNRN-NH2 [compound 91]
MIC M. luteus 10240 (M. luteus 10240; 1% TSB, 20 h at 37° C.): 128 µg/mL | MIC E. coli BL21 A1 (E. coli BL21 A1): 16 µg/mL

VDKPPYLPRPRPPRPIYNR-NH2 [compound 60]
MIC M. luteus 10240 (M. luteus 10240; 10240, 20 h): 64 µg/mL | MIC E. coli BL21 A1 (E. coli BL21 A1): 8 µg/mL
